“Also recorded” adds a separate entry of the source.

The values below come from patent US8563738B2, “Ligands for copper-catalyzed azide-alkyne cycloaddition reactions” (The Scripps Research Institute, priority 2007, dated 2013).

Assay [1] is described as follows: Ligand screening by reaction calorimetry (peak reaction power). Further details: key to calorimetry ligand category: reactions that failed to produce a signal in the calorimeter were classified as identifying “inactive” ligands; moderate: give observable, but not very strong, calorimetry signals. To be noted: 65° C. The source says:
Reaction calorimetry was used to evaluate the relative merits of various ligands under practical conditions of organic synthesis, e.g., involving high concentrations of azide and alkyne reagents and low loadings of catalyst. After correction for instrumental heat transfer parameters, thermograms provide a direct real-time measure of reaction rate (power output); integration gives the overall time-vs.-completion curve. […] All such measurements were made in the same 4:1 DMSO:aqueous solvent as before, but at 65° C. rather than room temperature, in order to keep the product triazole in solution at the higher concentrations used.
Calorimetry was performed in an Omnical INSIGHT® 10-channel reaction calorimeter using 40 mL glass vials. In a typical run all the reaction components but one were introduced into the vials inside an inert atmosphere glovebox, and vials were sealed with septum caps. The last reaction component to be added was placed in a Hamilton gastight syringe. The vials and syringes were then allowed to equilibrate inside the preheated instrument (65° C.) for 30 minutes. The reaction was started in all vials by depressing all of the syringes simultaneously. Two vials out of ten were charged only with solvent to obtain readings allowing for compensation for the heat of mixing. The thermograms registered in these two channels upon addition of the last component were used to construct the baseline for the other 8 channels.
Since heat is not transferred to the instrument sensor instantaneously, the thermogram registered by the instrument is dependent on the characteristics of the instrument and reaction vessel. Correction for these extraneous factors must be applied to the recorded thermograms to obtain instrument-independent data (Rosner, T.; et al. J. Am. Chem. Soc. 2001, 123, 1848-1855; Liu, J.-S.; et al. Thermochimica Acta 1994, 236, 113-122). The appropriate dynamic correction function is built into the instrument operating software. Use of vendor supplied software produces the same result as manual correction.
By the same token, catalysts such as Cu.1 that give observable, but not very strong, calorimetry signals cannot be fully analyzed by converting thermograms to completion curves, because a significant amount of the total energy output is lost below the detection threshold of the instrument. TBTA (1) falls into this category, classified as “moderate” ligands. […] However, peak power values (i.e., maximum reaction rate) provided a reproducible relative measure of relative catalytic efficiency.
Ligands were screened under the following conditions: 250 mM benzyl azide, 454 mM phenylacetylene, 2 mM CuSO4, 4 mM ligand, 25 mM sodium ascorbate. Phenylacetylene was the last component added. Initial screening was performed with at least two independent trials for each ligand. Candidates showing promising activity were then examined with at least three independent trials to obtain reliable estimations of experimental error.

Assay [2] is described as follows: Second-order rate constants of CuAAC reaction by LC-MS of quenched aliquots. To be noted: 4:1 DMSO:buffer, Tris buffer over a standard range of concentrations.

Take `c1ccc(Cn2cc(CN(Cc3cn(Cc4ccccc4)nn3)Cc3cn(Cc4ccccc4)nn3)nn2)cc1` [TBTA (1), tris((1-benzyl-1H-1,2,3-triazol-4-yl)methyl)amine, reference compound]: the calorimetry ligand category entry in assay [1] (250 mM benzyl azide, 454 mM phenylacetylene, 2 mM CuSO4, 4 mM ligand, 25 mM sodium ascorbate) is given as “moderate”. Further, the “relative catalytic activity by calorimetry” value in assay [1] (high reactant concentrations, 1% Cu, 4:1 DMSO:aqueous) was “sluggish catalyst compared to many of the others tested; also recorded: lower half of the ligands tested”. In addition, the “effect of Tris buffer on rate” value in assay [2] is listed as “slowed significantly”.
